Legend:
[1] = biological target: T1, C-C chemokine receptor type 3 (Homo sapiens, UniProt P51677); test: Binding affinity was determined towards C-C chemokine receptor type 3 using [125I]-labeled eotaxin as radioligand
T1 sequence (P51677 whole entry): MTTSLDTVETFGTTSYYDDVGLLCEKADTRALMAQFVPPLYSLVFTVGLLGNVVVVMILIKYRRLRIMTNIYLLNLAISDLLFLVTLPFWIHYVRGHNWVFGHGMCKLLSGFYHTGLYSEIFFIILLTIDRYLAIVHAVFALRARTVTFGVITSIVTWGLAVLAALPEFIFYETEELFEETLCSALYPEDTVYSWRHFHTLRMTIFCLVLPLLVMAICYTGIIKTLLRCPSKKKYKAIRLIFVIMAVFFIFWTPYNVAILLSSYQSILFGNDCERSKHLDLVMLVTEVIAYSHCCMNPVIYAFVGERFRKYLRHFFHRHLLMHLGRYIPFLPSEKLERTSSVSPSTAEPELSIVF

Rattus norvegicus = test: Area under curve in rat by po administration at 0-24 hr; format: ADME, organism-based; design: time < 24 hr, route oral; settings: in vivo
[2] = biological target: T1, C-C chemokine receptor type 3; test: Compound was tested for its ability to inhibit C-C chemokine receptor type 3 receptor
[3] = Half-life period in rat by iv administration; format: ADME, organism-based; settings: in vivo
[4] = Volume of distribution in rat by iv administration; format: ADME, organism-based; settings: in vivo
[5] = Plasma clearance in rat by iv administration; format: ADME, organism-based

Compound | IC50 [1] [µM] | IC50 [2] [µM] | other results
Cc1ccc(C(=O)NC(CC2CCN(Cc3ccc(C)c(C)c3)CC2)C(C)C)cc1 (stereo not drawn) | 7.8 | – | –
Cc1ccc(C(=O)NC(CC2CCC(Cc3ccc(Cl)c(Cl)c3)CC2)C(C)C)cc1 (stereo not drawn) | > 200 | – | –
C[C@H](O)[C@H](CN1C2CCC1CC(Cc1ccc(Cl)cc1)C2)NC(=O)Nc1cccc(S(C)(=O)=O)c1 (stereo partly drawn) | 0.012 | 0.0044 | AUC (Rattus norvegicus): 0.71 µg·h/mL
Cc1ccc(C(=O)NC(CC2CCN(Cc3ccccc3)CC2)C(C)C)cc1 (stereo not drawn) | > 200 | – | –
COc1cc(NC(=O)N[C@H](C)CN2C3CCC2CC(Cc2ccc(Cl)cc2)C3)cc(OC)c1OC (stereo partly drawn) | 0.011 | 0.0047 | AUC (Rattus norvegicus): 0.28 µg·h/mL
Cc1ccc(C(=O)NC(CN2C3CCC2CC(Cc2ccc(Cl)c(Cl)c2)C3)C(C)C)cc1 (stereo not drawn) | 1.8 | – | half-life [3]: 3.5 h; Vd [4]: 30.1 L/kg; clearance [5]: 7.06 L/h/kg
Cc1ccc(C(=O)NC(CN2CCC(Cc3ccc(Cl)c(Cl)c3)CC2)C(C)C)cc1 (stereo not drawn) | 0.5 | – | –
Cc1ccc(C(=O)NC(CN2CC3CCC2CC3Cc2ccc(Cl)c(Cl)c2)C(C)C)cc1 (stereo not drawn) | 5.3 | – | –
Cc1ccc(C(=O)NC(CC2CCN(Cc3ccc(Cl)c(Cl)c3)CC2)C(C)C)cc1 (stereo not drawn) | 1.7 | – | –
Cc1ccc(C(=O)NC(CC2CCN(Cc3ccc([N+](=O)[O-])cc3)CC2)C(C)C)cc1 (stereo not drawn) | 8.5 | – | –
COc1cc(NC(=O)NC(CC2CCN(Cc3ccc(Cl)c(Cl)c3)CC2)C(C)C)cc(OC)c1OC (stereo not drawn) | 0.5 | – | –
COc1cc(NC(=O)N[C@@H](CN2C3CCC2CC(Cc2ccc(Cl)cc2)C3)[C@H](C)O)cc(OC)c1OC (stereo partly drawn) | 0.0082 | 0.0024 | AUC (Rattus norvegicus): 0.19 µg·h/mL
C[C@H](CN1C2CCC1CC(Cc1ccc(Cl)cc1)C2)NC(=O)Nc1cccc(S(C)(=O)=O)c1 (stereo partly drawn) | 0.065 | 0.012 | –
